In US11738031B2, “Compositions and methods for preventing or treating muscle conditions” (The Board of Trustees of the Leland Stanford Junior …, priority 2017, dated 2023):

How the values were obtained:
[1] = test system: endogenous MuSCs in TA muscle; experiment: Endogenous MuSC BLI in Pax7CreERT2;Rosa26-LSL-Luc mice after cardiotoxin injury; format: in vivo, mouse; settings: 13 nmol three days post-cardiotoxin, BLI days 3-14
Procedure: Bioluminescence imaging: We performed bioluminescence imaging (BLI) using a Xenogen-100 system, as previously described^1,5,6. Briefly, we anesthetized mice using isofluorane inhalation and administered 120 μL D-luciferin (0.1 mmol kg^−1, reconstituted in PBS; Caliper LifeSciences) by intraperitoneal injection. We acquired BLI using a 60 s exposure at F-stop=1.0 at 5 minutes after luciferin injection. Digital images were recorded and analyzed using Living Image software (Caliper LifeSciences). We analyzed images with a consistent region-of-interest (ROI) placed over each hindlimb to calculate a bioluminescence signal. We calculated a bioluminescence signal in radiance (p s^−1 cm^−2 sr^−1) value of 10^4 to define an engraftment threshold. This radiance threshold of 10^4 is approximately equivalent to the total flux threshold in p/s reported previously. This BLI threshold corresponds to the histological detection of one or more GFP+ myofibers^1,5,6. We performed BLI imaging every week after transplantation. […]
We performed bioluminescence imaging (BLI) using a Xenogen-100 system, as previously described (24, 26, 27, 30). […] Digital images were recorded and analyzed using Living Image software (Caliper LifeSciences). We analyzed images with a consistent region-of-interest (ROI) placed over each hindlimb to calculate a bioluminescence signal. We calculated a bioluminescence signal in radiance (p s^−1 cm^−2 sr^−1) value of 10^4 to define an engraftment threshold. […]
Bioluminescent Imaging: For bioluminescence imaging (BLI), we anesthetized mice using isofluorane inhalation and administered 120 μL D-luciferin (0.1 mmol kg^−1, reconstituted in PBS; Caliper LifeSciences) by intraperitoneal injection. […] Digital images were recorded and analyzed using Living Image software (Caliper LifeSciences). We analyzed images with a consistent region-of-interest (ROI) placed over each hindlimb to calculate a bioluminescence signal. We calculated a bioluminescence signal in radiance (p s^−1 cm^−2 sr^−1) value of 10^4 to define an engraftment threshold. […]

[2] = test system: gastrocnemius (GA) muscle; experiment: In vivo muscle force after downhill treadmill run, aged mice, gastrocnemius; parameters: species or system mouse
Procedure: In vivo muscle force measurement: Aged mice (18 mo.) were subjected to downhill treadmill run for 2 consecutive weeks. During week 1, mice ran daily for 5 days and rested on days 6 and 7. […] During week 2, mice were subjected to 5 days treadmill run only. The treadmill run was performed using the Exer3/6 (Columbus Instruments). Mice ran for 10 minutes on the treadmill at 20 degrees downhill, starting at a speed of 7 meters/min. After 3 min, the speed was increased by 1 meter/min to a final speed of 14 meter/min. […] Force measurements were on the GA muscles at week 5 based on a protocol published previously^5. Briefly, for each mouse, an incision was made to expose the GA. We severed the calcaneus bone with intact achilles tendon and attached the tendon-bone complex to a 300C-LR force transducer (Aurora Scientific) with a thin metal hook. The muscles and tendons were kept moist by periodic wetting with saline (0.9% sodium chloride) solution. The lower limb was immobilized below the knee by a metal clamp without compromising the blood supply to the leg. The mouse was under inhaled anesthetic (2% isofluorane) during the entire force measuring procedure and body temperature was maintained by a heat lamp. […] Data were collected with a PCI-6251 acquisition card (National Instruments) and analyzed in Matlab. We calculated specific force values by normalizing the force measurements by the muscle physiological cross-sectional areas (PCSAs), which were similar between the control and the experimental PGE2 treated group (Table 2). PCSA (measured in mm^2) was calculated according to the following equation^12: PCSA (mm^2)=[mass (g)×Cos θ]÷[ρ (g/mm^3)×fiber length (mm)], where θ is pennation angle of the fiber and ρ is muscle density (0.001056 g/mm^3). […]
The muscle force and synchronization pulses were recorded via a PCI-6251 acquisition card (National Instruments) and analyzed using Matlab. FIGS. 5O-5P show the specific muscle force values that were calculated by normalizing the force measurements with the muscle physiological cross-sectional area. […]

[3] = 13 nM dmPGE2 daily for 5 days after downhill treadmill run, force at week 5

SMILES	BLI of endogenous MuSCs after injury and PGE2/dmPGE2 [1]	specific twitch force of gastrocnemius muscles (Example 2) ([2]; treadmill to exhaustion daily for 10 days, 3 nM PGE2 after each run, force 4 weeks after last run)	specific tetanic force of gastrocnemius [2, 3]	specific twitch force of gastrocnemius [2, 3]
CCCCC[C@H](O)/C=C/[C@H]1[C@H](O)CC(=O)[C@@H]1C/C=C\CCCC(=O)O [PGE2, prostaglandin E2]	in agreement with the histological data	increase in specific twitch force		
CCCCC(C)(C)[C@H](O)/C=C/[C@H]1[C@H](O)CC(=O)[C@@H]1C/C=C\CCCC(=O)O [dmPGE2, 16,16-dimethyl prostaglandin E2]	in agreement with the histological data		significantly increased	significantly increased
